{"source": "paper PMC9150124", "about": "“Design of a Potent, Selective, and Brain-Penetrant Inhibitor of Wnt-Deactivating Enzyme Notum by Optimization of a Crystallographic Fragment Hit” (Journal of Medicinal Chemistry, 2022)", "test_in_all_cases": "SelectScreen kinase profiling, SSBK ZLyte SP Technology", "assay_type_in_all_cases": "biochemical", "key": {"[1]": {"molecular_target": "kinase named in conditions (Homo sapiens, UniProt Q15139)", "conditions": "PRKD1 (PKC mu), 10 μM", "experimental": "(§1) Kinase selectivity screening was performed by Thermo Fisher Scientific (Paisley, U.K.) in their SelectScreen Biochemical Kinase Profiling Service. Assay information and data are presented in the Supporting Information.\n(§2) Kinase selectivity screening was performed by ThermoFisher Scientific (Paisley, U.K.) in their SelectScreenTM\n(§3) Biochemical Kinase Profiling service ."}, "[2]": {"molecular_target": "kinase named in conditions (Homo sapiens, UniProt P00533)", "sequence (P00533 25-1210)": "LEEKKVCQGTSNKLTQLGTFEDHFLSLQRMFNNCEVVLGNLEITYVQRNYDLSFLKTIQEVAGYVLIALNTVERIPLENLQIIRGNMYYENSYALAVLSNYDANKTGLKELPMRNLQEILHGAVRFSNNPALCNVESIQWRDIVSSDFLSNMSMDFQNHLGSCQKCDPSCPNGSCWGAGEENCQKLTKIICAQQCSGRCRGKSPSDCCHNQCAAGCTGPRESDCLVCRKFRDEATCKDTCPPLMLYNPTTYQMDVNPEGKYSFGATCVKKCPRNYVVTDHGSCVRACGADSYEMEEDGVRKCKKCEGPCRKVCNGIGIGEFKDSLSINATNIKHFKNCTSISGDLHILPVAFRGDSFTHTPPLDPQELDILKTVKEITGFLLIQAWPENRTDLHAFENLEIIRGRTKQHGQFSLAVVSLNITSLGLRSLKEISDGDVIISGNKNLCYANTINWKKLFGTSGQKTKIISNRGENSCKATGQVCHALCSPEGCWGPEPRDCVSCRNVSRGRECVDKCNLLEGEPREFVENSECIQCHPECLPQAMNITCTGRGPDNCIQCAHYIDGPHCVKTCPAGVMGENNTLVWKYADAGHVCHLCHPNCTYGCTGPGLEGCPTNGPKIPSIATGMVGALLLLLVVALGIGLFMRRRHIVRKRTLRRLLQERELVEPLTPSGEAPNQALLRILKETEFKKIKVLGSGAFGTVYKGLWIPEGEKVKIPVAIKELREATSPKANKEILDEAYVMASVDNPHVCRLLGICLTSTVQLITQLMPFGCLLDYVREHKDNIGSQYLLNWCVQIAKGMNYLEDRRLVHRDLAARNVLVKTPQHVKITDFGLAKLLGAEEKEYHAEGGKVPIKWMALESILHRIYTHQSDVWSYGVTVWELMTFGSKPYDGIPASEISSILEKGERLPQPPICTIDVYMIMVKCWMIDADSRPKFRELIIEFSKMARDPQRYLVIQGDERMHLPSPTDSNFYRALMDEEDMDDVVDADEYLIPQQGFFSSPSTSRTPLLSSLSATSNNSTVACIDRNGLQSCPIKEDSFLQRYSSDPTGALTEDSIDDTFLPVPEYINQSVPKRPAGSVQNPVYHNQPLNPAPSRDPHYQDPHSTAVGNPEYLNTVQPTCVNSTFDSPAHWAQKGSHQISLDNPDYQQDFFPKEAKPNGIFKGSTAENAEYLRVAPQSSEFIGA", "conditions": "EGFR (ErbB1), 10 μM", "experimental": "as §1, §2, §3"}, "[3]": {"molecular_target": "kinase named in conditions (Homo sapiens, UniProt P10721, T670I)", "sequence (P10721 26-976 T670I)": "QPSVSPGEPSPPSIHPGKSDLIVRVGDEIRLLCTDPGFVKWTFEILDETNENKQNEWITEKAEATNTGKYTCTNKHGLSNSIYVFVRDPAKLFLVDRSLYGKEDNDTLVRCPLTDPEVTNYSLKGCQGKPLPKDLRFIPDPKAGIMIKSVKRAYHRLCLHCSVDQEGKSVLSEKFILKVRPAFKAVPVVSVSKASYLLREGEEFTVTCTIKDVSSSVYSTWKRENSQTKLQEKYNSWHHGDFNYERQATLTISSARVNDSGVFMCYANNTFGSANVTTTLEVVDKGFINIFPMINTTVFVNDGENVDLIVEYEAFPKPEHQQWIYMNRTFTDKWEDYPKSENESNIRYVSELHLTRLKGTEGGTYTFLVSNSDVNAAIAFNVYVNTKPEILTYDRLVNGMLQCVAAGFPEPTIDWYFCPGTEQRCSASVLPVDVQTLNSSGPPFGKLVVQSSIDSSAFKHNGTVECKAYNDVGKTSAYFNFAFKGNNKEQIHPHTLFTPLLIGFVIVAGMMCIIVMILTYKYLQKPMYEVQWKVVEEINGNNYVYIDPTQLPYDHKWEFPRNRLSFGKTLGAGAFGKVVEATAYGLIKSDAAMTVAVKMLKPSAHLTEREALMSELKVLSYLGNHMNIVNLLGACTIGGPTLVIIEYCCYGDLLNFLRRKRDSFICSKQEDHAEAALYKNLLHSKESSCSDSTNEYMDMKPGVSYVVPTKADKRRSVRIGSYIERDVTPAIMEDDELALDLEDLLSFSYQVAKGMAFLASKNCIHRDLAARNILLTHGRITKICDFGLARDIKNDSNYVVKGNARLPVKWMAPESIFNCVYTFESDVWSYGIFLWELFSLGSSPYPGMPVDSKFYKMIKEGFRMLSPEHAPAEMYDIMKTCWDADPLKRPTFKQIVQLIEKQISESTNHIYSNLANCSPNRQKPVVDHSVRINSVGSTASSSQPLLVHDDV", "conditions": "KIT T670I, 10 μM", "experimental": "as §1, §2, §3"}, "[4]": {"molecular_target": "kinase named in conditions (Homo sapiens, UniProt Q9Y243)", "conditions": "AKT3 (PKB gamma), 10 μM", "experimental": "as §1, §2, §3"}, "[5]": {"molecular_target": "kinase named in conditions (Homo sapiens, UniProt P52564)", "conditions": "MAP2K6 (MKK6), 10 μM", "experimental": "as §1, §2, §3"}, "[6]": {"molecular_target": "kinase named in conditions (Homo sapiens, UniProt P29317)", "conditions": "EPHA2, 10 μM", "experimental": "as §1, §2, §3"}, "[7]": {"molecular_target": "kinase named in conditions (Homo sapiens, UniProt P17252)", "conditions": "PRKCA (PKC alpha), 10 μM", "experimental": "as §1, §2, §3"}, "[8]": {"molecular_target": "kinase named in conditions (Homo sapiens, UniProt P00533, T790M)", "conditions": "EGFR (ErbB1) T790M, 10 μM", "experimental": "as §1, §2, §3"}, "[9]": {"molecular_target": "kinase named in conditions (Homo sapiens, UniProt P11362)", "conditions": "FGFR1, 10 μM", "experimental": "as §1, §2, §3"}, "[10]": {"molecular_target": "kinase named in conditions (Homo sapiens, UniProt Q86Z02)", "sequence (Q86Z02 whole entry)": "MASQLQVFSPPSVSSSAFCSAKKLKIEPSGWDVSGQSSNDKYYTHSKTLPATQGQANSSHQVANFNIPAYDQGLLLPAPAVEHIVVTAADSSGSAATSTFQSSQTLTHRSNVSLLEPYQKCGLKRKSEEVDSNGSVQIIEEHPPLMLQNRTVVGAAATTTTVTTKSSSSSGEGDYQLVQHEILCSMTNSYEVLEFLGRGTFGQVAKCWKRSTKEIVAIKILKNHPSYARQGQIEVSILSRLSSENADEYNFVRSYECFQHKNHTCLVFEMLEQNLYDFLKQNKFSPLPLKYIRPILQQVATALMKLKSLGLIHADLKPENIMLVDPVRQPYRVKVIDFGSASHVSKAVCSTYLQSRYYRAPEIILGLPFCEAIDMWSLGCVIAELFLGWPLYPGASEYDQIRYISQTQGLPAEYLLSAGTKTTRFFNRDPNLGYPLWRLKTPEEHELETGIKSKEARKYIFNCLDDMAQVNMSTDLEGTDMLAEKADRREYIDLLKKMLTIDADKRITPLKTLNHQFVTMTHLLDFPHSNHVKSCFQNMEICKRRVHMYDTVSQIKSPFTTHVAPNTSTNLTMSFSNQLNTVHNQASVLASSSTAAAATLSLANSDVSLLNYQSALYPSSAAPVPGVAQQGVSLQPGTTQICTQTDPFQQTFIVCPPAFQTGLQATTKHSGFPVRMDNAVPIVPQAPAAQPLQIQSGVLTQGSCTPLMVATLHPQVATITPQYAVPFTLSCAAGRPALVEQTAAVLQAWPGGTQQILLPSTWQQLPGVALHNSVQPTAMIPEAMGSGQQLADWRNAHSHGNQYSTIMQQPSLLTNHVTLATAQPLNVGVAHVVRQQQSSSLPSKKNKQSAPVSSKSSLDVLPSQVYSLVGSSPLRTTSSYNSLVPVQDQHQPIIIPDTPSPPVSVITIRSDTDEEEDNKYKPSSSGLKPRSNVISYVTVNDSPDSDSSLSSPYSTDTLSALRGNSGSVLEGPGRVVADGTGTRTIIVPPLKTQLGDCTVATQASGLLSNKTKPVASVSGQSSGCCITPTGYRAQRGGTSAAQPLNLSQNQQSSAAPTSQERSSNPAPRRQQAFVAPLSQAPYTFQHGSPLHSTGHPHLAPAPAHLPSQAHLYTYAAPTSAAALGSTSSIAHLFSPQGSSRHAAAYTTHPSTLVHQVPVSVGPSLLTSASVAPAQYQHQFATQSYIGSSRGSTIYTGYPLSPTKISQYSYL", "conditions": "HIPK1 (Myak), 10 μM", "experimental": "as §1, §2, §3"}, "[11]": {"molecular_target": "kinase named in conditions (Homo sapiens, UniProt P54756)", "conditions": "EPHA5, 10 μM", "experimental": "as §1, §2, §3"}, "[12]": {"molecular_target": "kinase named in conditions (Homo sapiens, UniProt P00519, F317I)", "conditions": "ABL1 F317I, 10 μM", "experimental": "as §1, §2, §3"}, "[13]": {"molecular_target": "kinase named in conditions (Homo sapiens, UniProt P08631)", "conditions": "HCK, 10 μM", "experimental": "as §1, §2, §3"}, "[14]": {"molecular_target": "kinase named in conditions (Homo sapiens, UniProt Q6DT37)", "conditions": "CDC42 BPG (MRCKG), 10 μM", "experimental": "as §1, §2, §3"}, "[15]": {"molecular_target": "kinase named in conditions (Homo sapiens, UniProt P22607)", "conditions": "FGFR3, 10 μM", "experimental": "as §1, §2, §3"}, "[16]": {"molecular_target": "kinase named in conditions (Homo sapiens, UniProt P15056)", "conditions": "BRAF, 10 μM", "experimental": "as §1, §2, §3"}, "[17]": {"molecular_target": "kinase named in conditions (Homo sapiens, UniProt Q9HC98)", "sequence (Q9HC98 whole entry)": "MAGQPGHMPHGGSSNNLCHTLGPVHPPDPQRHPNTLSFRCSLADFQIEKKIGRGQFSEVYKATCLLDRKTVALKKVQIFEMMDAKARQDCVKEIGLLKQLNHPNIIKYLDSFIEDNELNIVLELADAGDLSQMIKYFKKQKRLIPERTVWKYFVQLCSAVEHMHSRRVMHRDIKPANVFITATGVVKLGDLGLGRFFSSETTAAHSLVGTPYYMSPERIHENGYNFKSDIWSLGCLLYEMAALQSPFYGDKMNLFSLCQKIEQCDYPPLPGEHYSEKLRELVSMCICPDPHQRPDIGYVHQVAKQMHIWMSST", "conditions": "NEK6, 10 μM", "experimental": "as §1, §2, §3"}, "[18]": {"molecular_target": "kinase named in conditions (Homo sapiens, UniProt Q16288)", "conditions": "NTRK3 (TRKC), 10 μM", "experimental": "as §1, §2, §3"}, "[19]": {"molecular_target": "kinase named in conditions (Homo sapiens, UniProt P43403)", "conditions": "ZAP70, 10 μM", "experimental": "as §1, §2, §3"}, "[20]": {"molecular_target": "kinase named in conditions (Homo sapiens, UniProt Q16512)", "conditions": "PKN1 (PRK1), 10 μM", "experimental": "as §1, §2, §3"}, "[21]": {"molecular_target": "kinase named in conditions (Homo sapiens, UniProt P41240)", "conditions": "CSK, 10 μM", "experimental": "as §1, §2, §3"}, "[22]": {"molecular_target": "kinase named in conditions (Homo sapiens, UniProt Q04912)", "conditions": "MST1R (RON), 10 μM", "experimental": "as §1, §2, §3"}, "[23]": {"molecular_target": "kinase named in conditions (Homo sapiens, UniProt P29376)", "conditions": "LTK (TYK1), 10 μM", "experimental": "as §1, §2, §3"}, "[24]": {"molecular_target": "kinase named in conditions (Homo sapiens, UniProt O14757)", "conditions": "CHEK1 (CHK1), 10 μM", "experimental": "as §1, §2, §3"}, "[25]": {"molecular_target": "kinase named in conditions (Homo sapiens, UniProt O76039)", "conditions": "CDKL5, 10 μM", "experimental": "as §1, §2, §3"}, "[26]": {"molecular_target": "kinase named in conditions (Homo sapiens, UniProt P19784)", "conditions": "CSNK2A2 (CK2 alpha 2), 10 μM", "experimental": "as §1, §2, §3"}, "[27]": {"molecular_target": "kinase named in conditions (Homo sapiens, UniProt Q9H2X6)", "conditions": "HIPK2, 10 μM", "experimental": "as §1, §2, §3"}, "[28]": {"molecular_target": "kinase named in conditions (Homo sapiens, UniProt Q9UL54)", "conditions": "TAOK2 (TAO1), 10 μM", "experimental": "as §1, §2, §3"}, "[29]": {"molecular_target": "kinase named in conditions (Homo sapiens, UniProt P30530)", "conditions": "AXL, 10 μM", "experimental": "as §1, §2, §3"}, "[30]": {"molecular_target": "kinase named in conditions (Homo sapiens, UniProt P09619)", "conditions": "PDGFRB (PDGFR beta), 10 μM", "experimental": "as §1, §2, §3"}, "[31]": {"molecular_target": "kinase named in conditions (Homo sapiens, UniProt Q56UN5)", "conditions": "MAP3K19 (YSK4), 10 μM", "experimental": "as §1, §2, §3"}, "[32]": {"molecular_target": "kinase named in conditions (Homo sapiens, UniProt P51451)", "conditions": "BLK, 10 μM", "experimental": "as §1, §2, §3"}, "[33]": {"molecular_target": "kinase named in conditions (Homo sapiens, UniProt P08069)", "sequence (P08069 31-1367)": "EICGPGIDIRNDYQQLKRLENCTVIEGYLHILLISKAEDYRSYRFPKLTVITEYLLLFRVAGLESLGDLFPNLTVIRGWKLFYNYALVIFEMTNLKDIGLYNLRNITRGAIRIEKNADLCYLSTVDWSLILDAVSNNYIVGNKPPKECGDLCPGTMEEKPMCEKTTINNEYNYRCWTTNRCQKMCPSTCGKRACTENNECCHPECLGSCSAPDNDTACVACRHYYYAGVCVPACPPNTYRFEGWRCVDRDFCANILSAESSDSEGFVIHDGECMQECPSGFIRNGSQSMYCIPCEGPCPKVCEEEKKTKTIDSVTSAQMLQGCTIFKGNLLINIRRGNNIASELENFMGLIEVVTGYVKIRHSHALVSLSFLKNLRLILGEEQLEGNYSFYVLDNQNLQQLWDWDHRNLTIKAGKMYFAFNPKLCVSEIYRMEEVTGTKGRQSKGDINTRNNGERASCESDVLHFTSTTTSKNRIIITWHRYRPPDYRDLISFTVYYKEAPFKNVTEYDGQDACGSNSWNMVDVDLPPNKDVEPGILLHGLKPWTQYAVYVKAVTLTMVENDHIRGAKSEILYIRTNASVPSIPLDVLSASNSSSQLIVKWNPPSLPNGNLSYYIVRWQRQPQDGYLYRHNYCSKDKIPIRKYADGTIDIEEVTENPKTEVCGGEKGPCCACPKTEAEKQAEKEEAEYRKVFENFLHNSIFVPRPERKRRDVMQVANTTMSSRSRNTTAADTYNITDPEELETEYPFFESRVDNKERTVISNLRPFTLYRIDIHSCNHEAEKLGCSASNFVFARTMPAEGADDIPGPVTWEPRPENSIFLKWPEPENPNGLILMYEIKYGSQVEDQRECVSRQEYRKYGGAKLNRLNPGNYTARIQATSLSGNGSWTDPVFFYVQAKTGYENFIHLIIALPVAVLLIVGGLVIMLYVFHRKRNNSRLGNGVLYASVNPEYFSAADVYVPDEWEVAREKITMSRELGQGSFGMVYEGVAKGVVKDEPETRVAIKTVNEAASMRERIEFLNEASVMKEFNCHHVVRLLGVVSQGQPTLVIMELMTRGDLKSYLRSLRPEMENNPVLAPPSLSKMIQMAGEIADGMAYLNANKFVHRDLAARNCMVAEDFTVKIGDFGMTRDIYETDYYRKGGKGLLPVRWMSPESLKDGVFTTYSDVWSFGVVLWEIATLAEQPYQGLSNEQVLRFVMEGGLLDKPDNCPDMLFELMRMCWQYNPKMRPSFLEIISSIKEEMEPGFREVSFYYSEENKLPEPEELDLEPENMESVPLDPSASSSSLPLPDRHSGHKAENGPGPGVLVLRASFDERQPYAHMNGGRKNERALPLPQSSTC", "conditions": "IGF1R, 10 μM", "experimental": "as §1, §2, §3"}, "[34]": {"molecular_target": "kinase named in conditions (Homo sapiens, UniProt P49674, R178C)", "conditions": "CSNK1E (CK1 epsilon) R178C, 10 μM", "experimental": "as §1, §2, §3"}}}
{"smiles": "FC(F)(F)c1c(Cl)ccc(-n2ccnn2)c1Cl", "note": "[8l, 1-(2,4-Dichloro-3-(trifluoromethyl)phenyl)-1H-1,2,3-triazole]", "values": [{"measurement": "inhibition at 10 µM", "setting": "[1]", "result": 11, "unit": "%"}, {"measurement": "inhibition at 10 µM", "setting": "[2]", "result": 1, "unit": "%"}, {"measurement": "inhibition at 10 µM", "setting": "[3]", "result": 10, "unit": "%"}, {"measurement": "inhibition at 10 µM", "setting": "[4]", "result": 3, "unit": "%"}, {"measurement": "inhibition at 10 µM", "setting": "[5]", "result": 3, "unit": "%"}, {"measurement": "inhibition at 10 µM", "setting": "[6]", "result": 9, "unit": "%"}, {"measurement": "inhibition at 10 µM", "setting": "[7]", "result": -18, "unit": "%"}, {"measurement": "inhibition at 10 µM", "setting": "[8]", "result": 9, "unit": "%"}, {"measurement": "inhibition at 10 µM", "setting": "[9]", "result": -3, "unit": "%"}, {"measurement": "inhibition at 10 µM", "setting": "[10]", "result": 2, "unit": "%"}, {"measurement": "inhibition at 10 µM", "setting": "[11]", "result": 0, "unit": "%"}, {"measurement": "inhibition at 10 µM", "setting": "[12]", "result": 13, "unit": "%"}, {"measurement": "inhibition at 10 µM", "setting": "[13]", "result": 10, "unit": "%"}, {"measurement": "inhibition at 10 µM", "setting": "[14]", "result": 2, "unit": "%"}, {"measurement": "inhibition at 10 µM", "setting": "[15]", "result": 12, "unit": "%"}, {"measurement": "inhibition at 10 µM", "setting": "[16]", "result": 9, "unit": "%"}, {"measurement": "inhibition at 10 µM", "setting": "[17]", "result": 12, "unit": "%"}, {"measurement": "inhibition at 10 µM", "setting": "[18]", "result": 17, "unit": "%"}, {"measurement": "inhibition at 10 µM", "setting": "[19]", "result": 24, "unit": "%"}, {"measurement": "inhibition at 10 µM", "setting": "[20]", "result": -1, "unit": "%"}, {"measurement": "inhibition at 10 µM", "setting": "[21]", "result": 2, "unit": "%"}, {"measurement": "inhibition at 10 µM", "setting": "[22]", "result": 11, "unit": "%"}, {"measurement": "inhibition at 10 µM", "setting": "[23]", "result": 4, "unit": "%"}, {"measurement": "inhibition at 10 µM", "setting": "[24]", "result": 24, "unit": "%"}, {"measurement": "inhibition at 10 µM", "setting": "[25]", "result": -5, "unit": "%"}, {"measurement": "inhibition at 10 µM", "setting": "[26]", "result": 17, "unit": "%"}, {"measurement": "inhibition at 10 µM", "setting": "[27]", "result": 2, "unit": "%"}, {"measurement": "inhibition at 10 µM", "setting": "[28]", "result": -8, "unit": "%"}, {"measurement": "inhibition at 10 µM", "setting": "[29]", "result": 4, "unit": "%"}, {"measurement": "inhibition at 10 µM", "setting": "[30]", "result": 20, "unit": "%"}, {"measurement": "inhibition at 10 µM", "setting": "[31]", "result": -5, "unit": "%"}, {"measurement": "inhibition at 10 µM", "setting": "[32]", "result": 2, "unit": "%"}, {"measurement": "inhibition at 10 µM", "setting": "[33]", "result": -4, "unit": "%"}, {"measurement": "inhibition at 10 µM", "setting": "[34]", "result": -3, "unit": "%"}]}
